In PubChem BioAssay AID248 (DTP/NCI, 2004):
Toxic doses and inconclusive results are not listed.

Test system: L1210 leukemia ip in BDF1 mice, survival T/C
Assay: NCI In Vivo Anticancer Drug Screen. Data for tumor model L1210 Leukemia (intraperitoneal) in B6D2F1 (BDF1) mice
Conditions: endpoint: mean survival time, schedule: Q01DX001 (ip), higher = longer survival
Method in brief: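 Read-out is survival time, reported as the treated-group measurement over the vehicle-control measurement.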

SMILES | T/C (dose: 75.0 mg/kg/injection, vehicle: carboxymethylcellulose (CMC)) | T/C (dose: 150.0 mg/kg/injection, vehicle: carboxymethylcellulose (CMC)) | T/C (dose: 75.0 mg/kg/injection, vehicle: other) | T/C (dose: 150.0 mg/kg/injection, vehicle: other) | T/C (dose: 300.0 mg/kg/injection, vehicle: other)
COc1cc2c(cc1O)CCN(C)C2Cc1ccc(OC)c(OC)c1 (stereo not given) | 95 % of control | 94 % of control |  |  | 
CCCCC#CC(=O)OC |  |  | 106 % of control | 97 % of control | 101 % of control
